# Article PMC10856758, “New Dual Inhibitors of Tyrosyl-DNA Phosphodiesterase 1 and 2 Based on Deoxycholic Acid: Design, Synthesis, Cytotoxicity, and Molecular Modeling” (Molecules, 2024)
# Like-named read-outs stand apart in the source and are kept apart here.
# Assays:
# [1] = target: T1, TDP1 (Homo sapiens, UniProt Q9NUW8); test: TDP1 activity, real-time fluorescence oligonucleotide biosensor (FAM/BHQ1); assay type: biochemical; settings: 1.5 nM TDP1, 50 nM biosensor
# From the text: To detect TDP1 activity in real time, we used an oligonucleotide biosensor based on the ability of TDP1 to remove fluorophore quenchers from the 3’ end of DNA [29]. The hexadecamer oligonucleotide carried 5(6)-carboxyfluorescein (FAM) at the 5’ end as a fluorophore and Black Hole Quencher-1 (BHQ1) at the 3’ end as a fluorophore quencher. TDP1 inhibitors prevent the removal of fluorophore quenchers, resulting in a decrease in fluorescence intensity.
# TDP1 activity was detected as described in [31]. We measured the fluorescence intensity after quencher cleavage via a fluorophore quencher–coupled DNA oligonucleotide […]. The reaction mixtures contained TDP1 buffer (50 mM Tris, HCl pH 8.0, 50 mM NaCl, and 7 mM β-mercaptoethanol), 50 nM biosensor, and different concentrations of inhibitors. The reaction was triggered by adding TDP1 to a final concentration of 1.5 nM. The fluorophore quencher–coupled DNA oligonucleotide was synthesized in the Laboratory of Nucleic Acid Chemistry at the Institute of Chemical Biology and Fundamental Medicine (Novosibirsk, Russia).
# The reaction mixtures were incubated at room temperature in a 96-well plate, and fluorescence was measured using the POLARstar OPTIMA fluorimeter (BMG LABTECH, GmbH, Ortenberg, Germany) every 55 s during the linear phase (here, data from minute 0 to minute 8). […] Data calculation was carried out using the software MARS Data Analysis 2.0 (BMG LABTECH, Ortenberg, Germany).
# [2] = target: T2, TDP2 (Homo sapiens, UniProt O95551); test: Gel-based TDP2 activity assay (removal of 5'-tyrosine, PAGE); assay type: biochemical; settings: for remaining activity at 500 µM: read-out: TDP2, % (residual activity of TDP2); for IC50: 200 nM TDP2, 100 nM substrate, 15 min 37 °C
# T2 sequence (O95551 1-362): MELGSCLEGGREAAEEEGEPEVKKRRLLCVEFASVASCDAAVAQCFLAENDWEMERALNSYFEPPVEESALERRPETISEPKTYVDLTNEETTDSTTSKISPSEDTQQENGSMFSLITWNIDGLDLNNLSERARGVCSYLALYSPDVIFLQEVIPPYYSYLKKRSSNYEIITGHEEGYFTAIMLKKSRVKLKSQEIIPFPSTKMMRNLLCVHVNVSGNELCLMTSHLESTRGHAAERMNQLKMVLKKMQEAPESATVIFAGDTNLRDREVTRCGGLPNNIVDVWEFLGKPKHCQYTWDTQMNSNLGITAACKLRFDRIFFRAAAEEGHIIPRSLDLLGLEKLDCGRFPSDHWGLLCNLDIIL
# Procedure: We investigated the activity against the TDP2 enzyme of compounds 3d–f and 4a–e at 500 μM (Table 1). The basis for testing TDP 2 was its ability to remove a tyrosine residue from the 5’ end of an oligonucleotide substrate. The TDP2 reaction products were separated in a polyacrylamide gel (PAGE) with formamide denaturation.
# TDP2 activity was detected as described in [42]. We separated the products of the reaction of cleavage of the tyrosine residue from the 5′-end of the 3e FAM-labeled oligonucleotide in a polyacrylamide gel under denaturing conditions. […] The reaction mixtures contained TDP1 buffer ([…] Tris-HCl pH 8.0, 40 mM NaCl, 1 mM DTT, 0.05 mg/mL BSA (Sigma-Aldrich, St. Luis, MO, USA)), 100 nM oligonucleotide substrate, and inhibitors. The reaction was triggered by adding TDP2 to a final concentration of 200 nM.
# The reaction mixtures were incubated for 15 min at 37 °C. The reaction products were analyzed using Typhoon FLA 9500 phosphorimager (GE Healthcare, Boston, MA, USA). Each experiment was carried out in three independent replicates. The data were analyzed with QuantityOne 4.6.7 software.
# [3] = target: T1, TDP1; set-up: method as in PMID 33221302; settings: earlier DCA derivatives; cited from earlier work
# [4] = target: T2, TDP2; set-up: method as in PMID 35011303; settings: at ~1 mM concentration; cited from earlier work
# [5] = in vitro; settings: human, HeLa CC50
# Procedure: (§1) Topotecan (TOP1 inhibitor) and etoposide (TOP2 inhibitor) were used to study the effect combined with DCA derivatives on the metabolic activity of cells. […] Topotecan (0.5 µM) and etoposide (5 µM) were used at a concentration with low toxicity (>70% of living cells), selected based on preliminary experiments.
# (§2) The cells were seeded in 96-well plates in quadruplicates at 3 × 10^3 cells/well. The cells were grown in Dulbecco’s Modified Eagle—Medium (DMEM) (AppliChem, Darmstadt, Germany) with Antibiotic-Antimycotic (100 IU/mL penicillin, 0.1 μg/mL streptomycin, 0.25 µg/mL amphotericin) (1×) (Gibco, Grand Island, NE, USA) and 10% of fetal bovine serum (Gibco, Grand Island, NE, USA) in a 5% CO2 atmosphere at 37 °C. After the formation of a 50% monolayer, tested compounds were added to the medium, and the cell culture was monitored for 72 h at 37 °C. DCA derivatives were dissolved in 100% DMSO and topotecan/etoposide in water. Control cells were grown in the presence of the same volume of DMSO, those cells with the investigated compound. […] (MTT) solution (10 μL, 5 mg/mL) were added to each well and the cells were incubated for an additional 2 h. Then, the medium was removed from the wells, and 100 μL of iso-propanol was added to dissolve blue formazan crystals formed within live cells; the optical density was measured at test and reference wavelengths (570 nm and 620 nm, respectively) using CLARIOstar fluorimeter (BMG LABTECH, GmbH, Ortenberg, Germany). The experiments were repeated at least three times.
# [6] = system: HeLa cells; test: MTT assay, combination with topotecan or etoposide; assay type: cell-based, human; settings: with 0.5 μM topotecan or 5 µM etoposide
# Procedure: Next, the ability of the selected compounds to enhance the cytotoxic effect of topotecan and etoposide on the HeLa cell line was studied. CC50 values (50% cytotoxic concentration) were also calculated for the test compounds in the presence of topotecan or etoposide at fixed concentrations. For evaluation, three independent MTT assays were performed as described above with test substances in combination with topotecan at a final concentration of 0.5 μM and etoposide at a final concentration of 5 μM per well.
# Figure 2 The combined action of compounds 3d–e and 4d–e with 0.5 μM topotecan (Tpc, (A)) and 5 µM etoposide (Eto, (B)) on the survival of HeLa cells. The error bars show standard deviations.
# [7] = system: HeLa cells; settings: human, 72 h
# Procedure: as §1, §2
# [8] = MTT cytotoxicity/antiproliferative assay; settings: human, HeLa cells, HeLa CC50, 72 h of treatment, MTT assay
# Procedure: as §1, §2
# [9] = system: HeLa cells; test: MTT cytotoxicity/antiproliferative assay; settings: low-toxicity concentration, preliminary experiments
# Procedure: as §1, §2
# T1 sequence (Q9NUW8 whole entry): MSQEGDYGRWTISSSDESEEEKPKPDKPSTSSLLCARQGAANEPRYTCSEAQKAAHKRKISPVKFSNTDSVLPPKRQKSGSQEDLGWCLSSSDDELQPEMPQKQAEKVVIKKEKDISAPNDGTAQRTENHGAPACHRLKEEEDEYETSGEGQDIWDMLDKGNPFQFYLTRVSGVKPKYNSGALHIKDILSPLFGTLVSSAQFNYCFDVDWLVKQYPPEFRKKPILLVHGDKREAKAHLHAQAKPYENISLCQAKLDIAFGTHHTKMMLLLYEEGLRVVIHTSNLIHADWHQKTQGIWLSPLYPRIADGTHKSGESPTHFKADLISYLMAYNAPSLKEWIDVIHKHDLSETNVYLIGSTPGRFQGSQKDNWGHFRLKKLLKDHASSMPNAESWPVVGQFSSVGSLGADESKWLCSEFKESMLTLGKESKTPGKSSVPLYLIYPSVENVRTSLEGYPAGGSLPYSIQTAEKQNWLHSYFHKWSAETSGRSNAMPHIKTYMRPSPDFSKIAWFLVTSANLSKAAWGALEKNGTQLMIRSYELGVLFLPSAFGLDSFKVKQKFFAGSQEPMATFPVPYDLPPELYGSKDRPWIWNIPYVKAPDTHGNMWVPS
SMILES,IC50 [1] [µM],remaining activity at 500 µM ([2]; at 500 µM compound) [%],melting point,CC50 at 72 h [5] [µM],further results
"CC(CCC(=O)O)C1CCC2C3CCC4CC(O)(CSc5ccncc5)CCC4(C)C3CC(O)C12C (stereo not drawn) [3a, 3β,12α-Dihydroxy-3α-((pyrydin-4-ylthio)methyl)-5β-cholan-24-oic Acid]",22 ± 2,92 ± 3,119.6 °C (dec.),–,–
CC(CCC(=O)NCCc1c[nH]c2ccccc12)C1CCC2C3CCC4CC(OCc5ccccc5)CCC4(C)C3CC(O)C12C (stereo not drawn) [3α-benzyloxy deoxycholic tryptamide],–,–,–,–,IC50 [3]: 0.24 µM; TDP1 IC50 [3]: submicromolar range; TDP2 residual activity [4]: less than 50%
Cc1ccc2[nH]c(SCC3(O)CCC4(C)C(CCC5C4CC(O)C4(C)C(C(C)CCC(=O)O)CCC54)C3)nc2c1 (stereo not shown) [3d],25 ± 4,~25,188.9 °C (dec.),63 ± 6,"IC50 [2]: 250 ± 30 µM; TDP2, % (residual activity of TDP2) ([2]; at 500 µM compound, 500 µM): 24 ± 5%"
CC(CCC(=O)O)C1CCC2C3CCC4CC(O)(CSc5nc6ccccc6s5)CCC4(C)C3CC(O)C12C (stereo not shown) [3e],14 ± 2,~2,106.2 °C (dec.),75 ± 13,IC50 [2]: 76 ± 13 µM
"COC1CCC2(C)C(CCC3C2CC(OC)C2(C)C(C(C)CCC(=O)Nc4ccc(Br)cc4)CCC32)C1 (stereo not drawn) [3α,12α-bis-methoxy deoxycholic para-bromoanilide]",–,–,–,–,IC50 [3]: 0.27 µM; TDP1 IC50 [3]: submicromolar range
COC(=O)CCC(C)C1CCC2C3CCC4CC(O)(CSc5nc6ccccc6s5)CCC4(C)C3CC(O)C12C (stereo not shown) [4e],0.63 ± 0.03,~49,74.5 °C (dec.),> 75,combined cytotoxic effect / cell survival under drug combinations [6]: most noticeable combined cytotoxic effect with both topotecan and etoposide; CC50 [7]: > 100 µM
"CC(CCC(=O)O)C1CCC2C3CCC4CC(O)(CSc5nccn5C)CCC4(C)C3CC(O)C12C (stereo not drawn) [3b, 3β,12α-Dihydroxy-3α-((1-methyl-1H-imidazol-2-ylthio)methyl)-5β-cholan-24-oic Acid]",30 ± 7,≥ 100,119.9 °C (dec.),–,–
COC(=O)CCC(C)C1CCC2C3CCC4CC(O)(CSc5nc6ccccc6o5)CCC4(C)C3CC(O)C12C (stereo not shown) [4f],1.8 ± 0.5,≥ 100,75 °C (dec.),–,–
CC[C@@]1(O)C(=O)OCc2c1cc1n(c2=O)Cc2cc3c(CN(C)C)c(O)ccc3nc2-1 [Topotecan],–,–,–,–,CC50 at 72 h [8]: 0.9 ± 0.1 µM; living cells ([9]; topotecan alone at 0.5 µM): > 70%
"CC(CCC(=O)O)C1CCC2C3CCC4CC(O)(CSc5nc[nH]n5)CCC4(C)C3CC(O)C12C (stereo not drawn) [3c, 3β,12α-Dihydroxy-3α-((1H-1,2,4-triazol-5-ylthio)methyl)-5β-cholan-24-oic Acid]",32 ± 4,≥ 100,95.1 to 98.4 °C,–,–
COc1cc([C@@H]2c3cc4c(cc3[C@@H](O[C@@H]3O[C@@H]5CO[C@@H](C)O[C@H]5[C@H](O)[C@H]3O)[C@H]3COC(=O)[C@H]23)OCO4)cc(OC)c1O [Etoposide],–,–,–,–,CC50 at 72 h [8]: 6.2 ± 0.6 µM; living cells ([9]; etoposide alone at 5 µM): > 70%
COC(=O)CCC(C)C1CCC2C3CCC4CC(O)(CSc5nc6cc(C)ccc6[nH]5)CCC4(C)C3CC(O)C12C (stereo not shown) [4d],0.94 ± 0.04,~14,112.1 °C (dec.),50 ± 13,IC50 [2]: 218 ± 7 µM
